Test results reported in ChEMBL document CHEMBL4387773, “Identification of potent, selective and orally bioavailable phenyl ((R)-3-phenylpyrrolidin-3-yl)sulfone analogues as RORγt inverse agonists” (Bioorg Med Chem Lett, 2019).

Biological target: T1, PXR (Homo sapiens, UniProt O75469)
T1 sequence (O75469 whole entry): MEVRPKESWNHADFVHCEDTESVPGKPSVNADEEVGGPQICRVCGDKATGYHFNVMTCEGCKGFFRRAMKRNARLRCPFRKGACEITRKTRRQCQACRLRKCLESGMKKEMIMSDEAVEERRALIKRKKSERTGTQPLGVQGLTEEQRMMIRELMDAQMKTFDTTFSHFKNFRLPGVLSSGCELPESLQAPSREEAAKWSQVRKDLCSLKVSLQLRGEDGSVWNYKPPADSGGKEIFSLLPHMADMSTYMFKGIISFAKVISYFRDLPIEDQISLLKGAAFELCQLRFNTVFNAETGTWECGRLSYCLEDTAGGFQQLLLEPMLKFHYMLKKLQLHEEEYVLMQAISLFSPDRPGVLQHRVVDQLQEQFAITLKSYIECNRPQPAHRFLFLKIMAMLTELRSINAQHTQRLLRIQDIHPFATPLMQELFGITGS
Assay: Transactivation of PXR (unknown origin) expressed in human HepG2 cells assessed as maximum receptor activation response relative to control
Type: cell-based
Details: human HepG2 cells that express PXR, read-out: %max

| Emax | SMILES |
| --- | --- |
| 16% | O=C(N1CC[C@](c2ccc(C(F)(C(F)(F)F)C(F)(F)F)cc2)(S(=O)(=O)c2ccc(F)cc2)C1)C1(F)CCS(=O)(=O)CC1 |
| 11% | O=C([C@H]1CC[C@H](c2nnn[nH]2)CC1)N1CC[C@](c2ccc(C(F)(C(F)(F)F)C(F)(F)F)cc2)(S(=O)(=O)c2ccc(F)cc2)C1 |
| 5% | NC(=O)[C@H]1CC[C@H](C(=O)N2CC[C@](c3ccc(C(F)(C(F)(F)F)C(F)(F)F)cc3)(S(=O)(=O)c3ccc(F)cc3)C2)CC1 |
| 8% | O=C([C@H]1CC[C@H](CO)CC1)N1CC[C@](c2ccc(C(F)(C(F)(F)F)C(F)(F)F)cc2)(S(=O)(=O)c2ccc(F)cc2)C1 |

Biological target: T2, Nuclear receptor ROR-beta (Homo sapiens, UniProt Q92753)
T2 sequence (Q92753 whole entry): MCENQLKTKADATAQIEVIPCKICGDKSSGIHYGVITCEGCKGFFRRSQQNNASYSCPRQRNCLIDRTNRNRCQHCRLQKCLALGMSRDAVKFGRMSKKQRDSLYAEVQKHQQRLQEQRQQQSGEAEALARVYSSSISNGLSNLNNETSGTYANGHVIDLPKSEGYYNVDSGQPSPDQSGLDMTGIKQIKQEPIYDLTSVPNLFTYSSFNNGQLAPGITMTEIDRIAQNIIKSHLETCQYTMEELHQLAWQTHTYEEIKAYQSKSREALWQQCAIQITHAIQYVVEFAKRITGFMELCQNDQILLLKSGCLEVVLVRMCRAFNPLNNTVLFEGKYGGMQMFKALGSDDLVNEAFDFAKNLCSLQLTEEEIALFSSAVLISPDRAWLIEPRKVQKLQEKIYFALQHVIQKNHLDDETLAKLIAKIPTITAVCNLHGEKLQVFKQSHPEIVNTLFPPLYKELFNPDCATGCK
Assay: Inverse agonist activity at human Gal4-fused RORbeta LBD (200 to 559 residues) expressed in human Jurkat cells measured after 18 hrs by steady-glo luciferase reporter gene assay
Type: cell-based
Details: not given

| EC50 | SMILES |
| --- | --- |
| > 40 µM | O=C(N1CC[C@](c2ccc(C(F)(C(F)(F)F)C(F)(F)F)cc2)(S(=O)(=O)c2ccc(F)cc2)C1)C1(F)CCS(=O)(=O)CC1 |
| > 40 µM | O=C([C@H]1CC[C@H](c2nnn[nH]2)CC1)N1CC[C@](c2ccc(C(F)(C(F)(F)F)C(F)(F)F)cc2)(S(=O)(=O)c2ccc(F)cc2)C1 |
| > 40 µM | NC(=O)[C@H]1CC[C@H](C(=O)N2CC[C@](c3ccc(C(F)(C(F)(F)F)C(F)(F)F)cc3)(S(=O)(=O)c3ccc(F)cc3)C2)CC1 |
| > 40 µM | O=C([C@H]1CC[C@H](CO)CC1)N1CC[C@](c2ccc(C(F)(C(F)(F)F)C(F)(F)F)cc2)(S(=O)(=O)c2ccc(F)cc2)C1 |

System: not listed separately
Assay: Stability in human liver microsomes assessed as parent compound remaining after 10 mins
Type: ADME, Microsome
Details: liver microsomes, read-out: Stability

| remaining at 10 min | SMILES |
| --- | --- |
| 100% | O=C(N1CC[C@](c2ccc(C(F)(C(F)(F)F)C(F)(F)F)cc2)(S(=O)(=O)c2ccc(F)cc2)C1)C1(F)CCS(=O)(=O)CC1 |
| 100% | O=C([C@H]1CC[C@H](c2nnn[nH]2)CC1)N1CC[C@](c2ccc(C(F)(C(F)(F)F)C(F)(F)F)cc2)(S(=O)(=O)c2ccc(F)cc2)C1 |
| 100% | NC(=O)[C@H]1CC[C@H](C(=O)N2CC[C@](c3ccc(C(F)(C(F)(F)F)C(F)(F)F)cc3)(S(=O)(=O)c3ccc(F)cc3)C2)CC1 |
| 75% | O=C([C@H]1CC[C@H](CO)CC1)N1CC[C@](c2ccc(C(F)(C(F)(F)F)C(F)(F)F)cc2)(S(=O)(=O)c2ccc(F)cc2)C1 |

Biological target: T3, Oxysterols receptor LXR-alpha (Homo sapiens, UniProt Q13133)
T3 sequence (Q13133 whole entry): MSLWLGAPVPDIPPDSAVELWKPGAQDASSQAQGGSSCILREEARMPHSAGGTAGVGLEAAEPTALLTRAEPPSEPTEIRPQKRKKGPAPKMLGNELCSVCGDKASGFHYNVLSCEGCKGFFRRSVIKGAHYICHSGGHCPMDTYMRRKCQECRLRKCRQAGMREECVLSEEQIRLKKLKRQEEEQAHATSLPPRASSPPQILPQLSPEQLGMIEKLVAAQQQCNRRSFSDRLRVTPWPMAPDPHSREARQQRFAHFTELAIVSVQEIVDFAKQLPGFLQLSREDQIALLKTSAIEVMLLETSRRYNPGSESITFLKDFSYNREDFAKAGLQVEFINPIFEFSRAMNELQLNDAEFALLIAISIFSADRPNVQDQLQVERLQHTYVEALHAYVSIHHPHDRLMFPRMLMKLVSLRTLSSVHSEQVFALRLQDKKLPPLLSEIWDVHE
Assay: Transactivation of human GAL4-fused LXRalpha expressed in African green monkey CV1 cells
Type: cell-based
Details: not given

| EC50 | SMILES |
| --- | --- |
| > 7.5 µM | O=C(N1CC[C@](c2ccc(C(F)(C(F)(F)F)C(F)(F)F)cc2)(S(=O)(=O)c2ccc(F)cc2)C1)C1(F)CCS(=O)(=O)CC1 |
| > 7.5 µM | O=C([C@H]1CC[C@H](c2nnn[nH]2)CC1)N1CC[C@](c2ccc(C(F)(C(F)(F)F)C(F)(F)F)cc2)(S(=O)(=O)c2ccc(F)cc2)C1 |
| > 7.5 µM | NC(=O)[C@H]1CC[C@H](C(=O)N2CC[C@](c3ccc(C(F)(C(F)(F)F)C(F)(F)F)cc3)(S(=O)(=O)c3ccc(F)cc3)C2)CC1 |
| > 7.5 µM | O=C([C@H]1CC[C@H](CO)CC1)N1CC[C@](c2ccc(C(F)(C(F)(F)F)C(F)(F)F)cc2)(S(=O)(=O)c2ccc(F)cc2)C1 |

Biological target: T4, Nuclear receptor subfamily 1 group I member 2 (Homo sapiens, UniProt O75469)
T4 sequence (O75469 whole entry): T1 sequence (O75469 whole entry)
Assay: Transactivation of PXR (unknown origin) expressed in human HepG2 cells
Type: cell-based
Details: not given

| EC50 | SMILES |
| --- | --- |
| > 50 µM | O=C(N1CC[C@](c2ccc(C(F)(C(F)(F)F)C(F)(F)F)cc2)(S(=O)(=O)c2ccc(F)cc2)C1)C1(F)CCS(=O)(=O)CC1 |
| > 50 µM | O=C([C@H]1CC[C@H](c2nnn[nH]2)CC1)N1CC[C@](c2ccc(C(F)(C(F)(F)F)C(F)(F)F)cc2)(S(=O)(=O)c2ccc(F)cc2)C1 |
| > 50 µM | NC(=O)[C@H]1CC[C@H](C(=O)N2CC[C@](c3ccc(C(F)(C(F)(F)F)C(F)(F)F)cc3)(S(=O)(=O)c3ccc(F)cc3)C2)CC1 |
| > 50 µM | O=C([C@H]1CC[C@H](CO)CC1)N1CC[C@](c2ccc(C(F)(C(F)(F)F)C(F)(F)F)cc2)(S(=O)(=O)c2ccc(F)cc2)C1 |

Biological target: T5, Nuclear receptor ROR-alpha (Homo sapiens, UniProt P35398)
T5 sequence (P35398 whole entry): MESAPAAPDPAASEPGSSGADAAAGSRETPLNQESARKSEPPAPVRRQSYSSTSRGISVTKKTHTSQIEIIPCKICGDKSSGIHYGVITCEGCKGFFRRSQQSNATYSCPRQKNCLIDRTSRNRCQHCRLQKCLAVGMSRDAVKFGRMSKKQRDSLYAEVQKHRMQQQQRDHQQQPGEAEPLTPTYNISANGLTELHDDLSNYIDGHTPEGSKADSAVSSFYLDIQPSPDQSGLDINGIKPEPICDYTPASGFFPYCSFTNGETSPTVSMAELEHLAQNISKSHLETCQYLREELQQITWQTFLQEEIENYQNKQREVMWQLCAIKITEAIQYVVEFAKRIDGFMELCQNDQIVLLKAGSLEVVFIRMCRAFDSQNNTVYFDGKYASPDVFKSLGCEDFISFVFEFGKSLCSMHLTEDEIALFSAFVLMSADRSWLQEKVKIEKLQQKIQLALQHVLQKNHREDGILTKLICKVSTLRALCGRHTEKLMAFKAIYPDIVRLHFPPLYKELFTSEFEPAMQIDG
Assay: Inverse agonist activity at human Gal4-fused RORalpha LBD (272 to 556 residues) expressed in human Jurkat cells measured after 18 hrs by steady-glo luciferase reporter gene assay
Type: cell-based
Details: not given

| EC50 | SMILES |
| --- | --- |
| > 40 µM | O=C(N1CC[C@](c2ccc(C(F)(C(F)(F)F)C(F)(F)F)cc2)(S(=O)(=O)c2ccc(F)cc2)C1)C1(F)CCS(=O)(=O)CC1 |
| > 40 µM | O=C([C@H]1CC[C@H](c2nnn[nH]2)CC1)N1CC[C@](c2ccc(C(F)(C(F)(F)F)C(F)(F)F)cc2)(S(=O)(=O)c2ccc(F)cc2)C1 |
| > 40 µM | NC(=O)[C@H]1CC[C@H](C(=O)N2CC[C@](c3ccc(C(F)(C(F)(F)F)C(F)(F)F)cc3)(S(=O)(=O)c3ccc(F)cc3)C2)CC1 |
| > 40 µM | O=C([C@H]1CC[C@H](CO)CC1)N1CC[C@](c2ccc(C(F)(C(F)(F)F)C(F)(F)F)cc2)(S(=O)(=O)c2ccc(F)cc2)C1 |

System: not listed separately
Assay: Stability in mouse liver microsomes assessed as parent compound remaining after 10 mins
Type: ADME, Microsome
Details: liver microsomes, read-out: Stability

| remaining at 10 min | SMILES |
| --- | --- |
| 90% | O=C(N1CC[C@](c2ccc(C(F)(C(F)(F)F)C(F)(F)F)cc2)(S(=O)(=O)c2ccc(F)cc2)C1)C1(F)CCS(=O)(=O)CC1 |
| 73% | O=C([C@H]1CC[C@H](c2nnn[nH]2)CC1)N1CC[C@](c2ccc(C(F)(C(F)(F)F)C(F)(F)F)cc2)(S(=O)(=O)c2ccc(F)cc2)C1 |
| 100% | NC(=O)[C@H]1CC[C@H](C(=O)N2CC[C@](c3ccc(C(F)(C(F)(F)F)C(F)(F)F)cc3)(S(=O)(=O)c3ccc(F)cc3)C2)CC1 |
| 63% | O=C([C@H]1CC[C@H](CO)CC1)N1CC[C@](c2ccc(C(F)(C(F)(F)F)C(F)(F)F)cc2)(S(=O)(=O)c2ccc(F)cc2)C1 |

Biological target: T6, Oxysterols receptor LXR-beta (Homo sapiens, UniProt P55055)
T6 sequence (P55055 whole entry): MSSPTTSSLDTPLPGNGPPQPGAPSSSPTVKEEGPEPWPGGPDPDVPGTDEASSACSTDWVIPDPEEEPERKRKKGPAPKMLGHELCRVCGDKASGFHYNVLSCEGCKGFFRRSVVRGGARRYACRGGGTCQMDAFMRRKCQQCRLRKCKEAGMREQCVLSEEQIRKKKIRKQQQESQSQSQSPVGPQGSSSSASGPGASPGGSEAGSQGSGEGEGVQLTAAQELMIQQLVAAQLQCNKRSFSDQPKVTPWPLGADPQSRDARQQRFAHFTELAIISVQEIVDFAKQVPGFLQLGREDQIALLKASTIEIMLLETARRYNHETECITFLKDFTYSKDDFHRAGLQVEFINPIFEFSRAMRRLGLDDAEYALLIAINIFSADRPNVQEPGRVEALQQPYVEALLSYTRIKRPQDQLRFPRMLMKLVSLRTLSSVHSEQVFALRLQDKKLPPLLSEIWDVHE
Assay: Transactivation of human GAL4-fused LXRbeta expressed in African green monkey CV1 cells
Type: cell-based
Details: not given

| EC50 | SMILES |
| --- | --- |
| > 7.5 µM | O=C(N1CC[C@](c2ccc(C(F)(C(F)(F)F)C(F)(F)F)cc2)(S(=O)(=O)c2ccc(F)cc2)C1)C1(F)CCS(=O)(=O)CC1 |
| > 7.5 µM | O=C([C@H]1CC[C@H](c2nnn[nH]2)CC1)N1CC[C@](c2ccc(C(F)(C(F)(F)F)C(F)(F)F)cc2)(S(=O)(=O)c2ccc(F)cc2)C1 |
| > 7.5 µM | NC(=O)[C@H]1CC[C@H](C(=O)N2CC[C@](c3ccc(C(F)(C(F)(F)F)C(F)(F)F)cc3)(S(=O)(=O)c3ccc(F)cc3)C2)CC1 |
| > 7.5 µM | O=C([C@H]1CC[C@H](CO)CC1)N1CC[C@](c2ccc(C(F)(C(F)(F)F)C(F)(F)F)cc2)(S(=O)(=O)c2ccc(F)cc2)C1 |
